11 compounds from US9284308B2, “Methylene linked quinolinyl modulators of RORγt” (Janssen Pharmaceutica NV, priority 2013, dated 2016) can be followed below.

In assay [1] the target is T1, human RORγt ligand binding domain (RORγt LBD) (Homo sapiens, UniProt P51449).
T1 construct: His-tag (N); TurboTEV protease cleavage site (ENLYFQG) (N); made in house; host or cells: E. coli (pHIS1, modified pET vector)
T1 sequence (P51449 with tags, fused parts or gaps): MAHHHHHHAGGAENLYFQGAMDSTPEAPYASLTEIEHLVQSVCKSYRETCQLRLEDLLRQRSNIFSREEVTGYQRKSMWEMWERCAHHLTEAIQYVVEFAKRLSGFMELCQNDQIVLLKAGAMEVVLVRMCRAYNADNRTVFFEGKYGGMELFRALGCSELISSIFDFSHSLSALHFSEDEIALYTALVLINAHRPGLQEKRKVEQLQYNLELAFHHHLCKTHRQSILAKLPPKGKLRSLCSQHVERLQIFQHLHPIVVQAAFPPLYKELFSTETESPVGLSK
Put plainly: RORγt ThermoFluor assay (ligand binding affinity from protein thermal stability). The method, then: This approach is applicable to a wide variety of systems, and rigorous in theoretical interpretation through quantitation of equilibrium binding constants (KD).
The shift in the melting point described as a ΔTm is proportional to the concentration and affinity of the ligand.
RORγt ThermoFluor® Assay Construct
Protein and compound solutions are dispensed into black 384-well polypropylene PCR microplates (Abgene) and overlayed with silicone oil (1 μL, Fluka, type DC 200) to prevent evaporation.
Bar-coded assay plates are robotically loaded onto a thermostatically controlled PCR-type thermal block and then heated at a typical ramp-rate of 1° C./min for all experiments. Fluorescence was measured by continuous illumination with UV light (Hamamatsu LC6) supplied via fiber optic and filtered through a band-pass filter (380-400 nm; >6 OD cutoff). Fluorescence emission of the entire 384-well plate was detected by measuring light intensity using a CCD camera (Sensys, Roper Scientific) filtered to detect 500±25 nm, resulting in simultaneous and independent readings of all 384 wells. Images were collected at each temperature, and the sum of the pixel intensity in a given area of the assay plate was recorded versus temperature. Reference wells contained RORγt without compounds, and the assay conditions were as follows: • 0.065 mg/mL RORγt • 60 μM 1,8-ANS • 100 mM Hepes, pH 7.0 • 10 mM NaCl • 2.5 mM GSH • 0.002% Tween-20
Project compounds were arranged in a pre-dosed mother plate (Greiner Bio-one) wherein compounds are serially diluted in 100% DMSO by 1:2 from a high concentration of 10 mM over 12 columns within a series (column 12 is a reference well containing DMSO, no compound). The compounds were robotically dispensed directly into assay plates (1×=[…]) using a Hummingbird capillary liquid handling instrument (Digilab). Following compound dispense, protein and dye in buffer was added to achieve the final assay volume of 3 μL, followed by 1 μL of silicone oil.
In general terms: DSF heats the sample and reads unfolding from a dye or from intrinsic fluorescence.

For assay [2], the target named is T2, human RORγt LBD (Homo sapiens, UniProt P51449).
T2 construct: expressed in transfected cells; host or cells: HEK293T
T2 sequence (P51449 258-518): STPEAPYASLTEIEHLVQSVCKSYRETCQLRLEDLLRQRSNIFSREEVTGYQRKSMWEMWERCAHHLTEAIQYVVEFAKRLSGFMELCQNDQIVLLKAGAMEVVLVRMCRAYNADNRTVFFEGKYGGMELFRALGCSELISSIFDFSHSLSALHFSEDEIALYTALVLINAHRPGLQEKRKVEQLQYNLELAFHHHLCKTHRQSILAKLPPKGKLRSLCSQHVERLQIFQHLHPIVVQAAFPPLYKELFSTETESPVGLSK
Nature of the assay: RORγt (LBD) reporter assay in HEK293T cells. Type of assay: cell-based. Conditions: for inhibition at 6 µM: HEK-293T, read-out: RORγt (LBD) Reporter Assay, % inhibition @ 6 μM, 6 μM compound; for RORγt (LBD) Reporter Assay, % inhibition @ 6 μM: 6 μM compound. An excerpt: RORγt (LBD) Reporter Assay
Cells used in the assay were co-transfected with two constructs. The first construct, pBIND-RORγt LBD, contained the wild type human RORγt LBD fused to the DNA binding domain of the GAL4 protein. The second construct, pGL4.31 (Promega Cat no. C935A), contained multiple GAL4 responsive DNA elements upstream of firefly luciferase. […] The mutant construct was called pBIND-RORγt-AF2.
The pBIND vector contains the GAL4 DNA Binding Domain (GAL4 DBD) and the renilla luciferase gene under control of the SV40 promoter. Renilla luciferase expression serves as a control for transfection efficiency and cell viability.
The reporter assay was performed by transiently transfecting HEK293T cells with 5 μg of pBIND-RORγt LBD or pBIND-RORγt LBD-AF2 and 5 μg pGL4.31 (Promega Cat no. C935A) using Fugene 6 (Invitrogen Cat no. E2691) at a 1:6 ratio of DNA:Fugene 6 in a T-75 flask in which cells were at least 80% confluent. Twenty four hours after bulk transfection, cells were plated into 96-well plates at 50,000 cells/well in phenol-red free DMEM containing 5% Lipid Reduced FCS and Pen/Strep. Six hours after plating, cells were treated with compounds for 24 hours. Media was removed and cells were lysed with 50 μL 1× Glo Lysis Buffer (Promega). Dual Glo Luciferase Reagent (50 μL/well) was then added and firefly luciferase luminescence was read on an Envision after a ten minute incubation. Finally, Stop and Glo reagent (50 μL/well) was added and renilla luciferase luminescence was read on an Envision after a ten minute incubation. […] Agonist compounds increase RORγt-driven luciferase expression, and antagonist or inverse agonist compounds decrease luciferase expression.

The subject of assay [3] is IL-17 production by CD4 T cells. Put plainly: Human Th17 assay. Type of assay: cell-based. Conditions: IL-17 production by human CD4 T cells. The method, then:
The human Th17 assay tests the effect of RORγt modulatory compounds on IL-17 production by CD4 T cells under conditions which favor Th17 differentiation. Total CD4^+ T cells were isolated from the peripheral blood mononuclear cells (PBMC) of healthy donors using a CD4^+ T cell isolation kit II, following the manufacturer's instructions (Miltenyi Biotec). […] 50 μL of compound at titrated concentrations in DMSO were added into each well at final DMSO concentration at 0.2%. Cells were incubated for 1 hour, then 50 μL of Th17 cell differentiation medium was added to each well. The final concentrations of antibodies and cytokines (R&D Systems) in differentiation medium were: 3×10^6/mL anti-CD3/CD28 beads (prepared using human T cell activation/expansion kit, Miltenyi Biotec), 10 μg/mL anti-IL4, 10 μg/mL anti-IFNγ, 10 ng/mL IL1β, 10 ng/mL IL23, 50 ng/mL IL6, 3 ng/mL TGFβ and 20 U/mL IL2. Cells were cultured at 37° C. and 5% CO2 for 3 days. Supernatants were collected and the accumulated IL-17 in culture was measured by using MULTI-SPOT® Cytokine Plate following manufacture's instruction (Meso Scale Discovery). The plate was read using Sector Imager 6000, and IL-17 concentration was extrapolated from the standard curve. The IC50s were determined by GraphPad.

Structures can show the parent of a compound that is named as a salt.

What is called Kd is the concentration at which binding is half-saturated. A high value points to weaker binding. Usually IC50 stands for the concentration at which inhibition is half-maximal. In general, inhibition refers to the relative decrease from the control value, in per cent.

Compound `COc1nc2ccc(C(O)(c3ccc(Cl)cc3)c3cncn3C)cc2c(Cl)c1Cc1ccc(C(F)(F)F)nc1` (stereo not drawn) [Example 39a] gave a Kd in assay [1] of 66 nM. Moreover, in assay [2], inhibition was half-maximal at 72 nM (IC50) and the inhibition at 6 µM was 92%. The IC50 in assay [3] (Homo sapiens, CD4+ T) worked out at 110 nM.

`COc1nc2ccc(C(O)(c3ccc(Cl)cc3)c3cncn3C)cc2c(Cl)c1Cc1ccc(C(F)(F)F)nc1` (single isomer, unassigned) [Example 39c] gave an equilibrium dissociation constant (Kd) in assay [1] of 19 nM. Also, in assay [2], the IC50 stood at 81 nM and the “RORγt (LBD) Reporter Assay, % inhibition @ 6 μM” value (“RORγt … % inhibition @ 6 μM” below) was determined as 98%. Also, in assay [3] (Homo sapiens, CD4+ T), the IC50 stood at 37 nM.

As for `COc1nc2ccc(C(O)(c3ccc(C)nc3C)c3cnnn3C)cc2c(Cl)c1Cc1ccc(F)cc1` (single isomer, unassigned) [Example 48c, (4-Chloro-3-(4-fluorobenzyl)-2-methoxyquinolin-6-yl)(2,6-dimethylpyridin-3-yl)(1-methyl-1H-1,2,3-triazol-5-yl)methanol], the Kd in assay [1] stood at 0.3 nM. Moreover, the IC50 is about 80 nM in assay [2] and 2.3 nM in assay [3] (Homo sapiens, CD4+ T). Further, the “RORγt … % inhibition @ 6 μM” value in assay [2] stood at 63%.

`COc1nc2ccc(C(O)(c3ccc(C(F)(F)F)cc3)c3cccnc3)cc2c(Cl)c1Cc1ccc(-n2cccn2)cc1` (single isomer, unassigned) [Example 162c]: in assay [1], the Kd came to 4.1 nM. Moreover, in assay [2], the IC50 stood at 98 nM and the “RORγt … % inhibition @ 6 μM” value turned out to be 98%. The half-inhibitory concentration (IC50) in assay [3] (Homo sapiens, CD4+ T) turned out to be 49 nM.

Consider `CCc1nc2ccc(C(O)(c3cnnn3C)c3cnc(C)n3C)cc2c(Cl)c1Cc1ccc(C(F)(F)F)cc1` (single isomer, unassigned) [Example 25b, (4-Chloro-2-ethyl-3-(4-(trifluoromethyl)benzyl)quinolin-6-yl)(1,2-dimethyl-1H-imidazol-5-yl)(1-methyl-1H-1,2,3-triazol-5-yl)methanol], for which the IC50 in assay [3] (Homo sapiens, CD4+ T) was 2.1 nM.

As to `COc1nc2ccc(C(O)(c3ccc(C(F)(F)F)cc3)c3cccnc3)cc2c(Cl)c1Cc1ccc(-n2cccn2)cc1` (stereo not drawn) [Example 162a], the Kd in assay [1] came out at 20 nM. Further, in assay [2], the IC50 turned out to be 310 nM and the inhibition at 6 µM came out at 90%. In assay [3] (Homo sapiens, CD4+ T), the 50% inhibitory concentration (IC50) amounted to 250 nM.

Regarding `COc1nc2ccc(C(N)(c3ccc(Cl)cc3)c3cncn3C)cc2c(Cl)c1Cc1ccc(-n2cccn2)cc1` (single isomer, unassigned) [Example 118c, (3-(4-(1H-Pyrazol-1-yl)benzyl)-4-chloro-2-methoxyquinolin-6-yl)(4-chlorophenyl)(1-methyl-1H-imidazol-5-yl)methanamine•TFA], inhibition in assay [3] was half-maximal at 50 nM (IC50).

`COc1nc2ccc(C(O)(c3cnc(C)n3C)c3cnc(C)n3C)cc2c(Cl)c1Cc1ccc(-n2cccn2)cc1` [Example 13, (3-(4-(1H-Pyrazol-1-yl)benzyl)-4-chloro-2-methoxyquinolin-6-yl)bis(1,2-dimethyl-1H-imidazol-5-yl)methanol]: in assay [3], the IC50 was found to be 100 nM. Against the preceding compound, the IC50 is about 2-fold higher.

In turn, `CNC(c1ccc2nc(OC)c(Cc3ccc(C(F)(F)F)cc3)c(Cl)c2c1)(c1ccc(C)nc1C)c1cnnn1C` (single isomer, unassigned) [Example 121c, 1-(4-Chloro-2-methoxy-3-(4-(trifluoromethyl)benzyl)quinolin-6-yl)-1-(2,6-dimethylpyridin-3-yl)-N-methyl-1-(1-methyl-1H-1,2,3-triazol-5-yl)methanamine•TFA] had a Kd in assay [1] of 130 nM. This compound also yielded an IC50 in assay [2] of 220 nM.

For `COc1nc2ccc(C(N)(c3ccc(C(F)(F)F)nc3)c3cncn3C)cc2c(Cl)c1Cc1ccccc1` (single isomer, unassigned) [Example 120c, (3-Benzyl-4-chloro-2-methoxyquinolin-6-yl)(1-methyl-1H-imidazol-5-yl)(6-(trifluoromethyl)pyridin-3-yl)methanamine•TFA], binding in assay [1] was characterised by a dissociation constant (Kd) of 1100 nM. Further, the IC50 in assay [2] is about 6000 nM.

`COc1nc2ccc(C(O)(c3ccc(C)nc3C)c3cnnn3C)cc2c(Cl)c1Cc1ccc(F)cc1` (single isomer, unassigned) [Example 48b, (4-Chloro-3-(4-fluorobenzyl)-2-methoxyquinolin-6-yl)(2,6-dimethylpyridin-3-yl)(1-methyl-1H-1,2,3-triazol-5-yl)methanol] showed a Kd in assay [1] of 250 nM. In assay [2], the IC50 is about 6000 nM and the inhibition at 6 µM turned out to be 53%.
